Measured values as given in article PMC9086926 (RSC Advances, 2018).

Key:
[1] = Absorptive permeability across 7 day fast model; conditions: human, Caco-2
[2] = Absorptive permeability across traditional 21 day Caco-2 cell model; conditions: human
[3] = cited from earlier work

| Compound | Papp A→B at 25 μM [1] | Papp A→B at 25 μM [2] | FA (human absorption fraction) [3] |
| --- | --- | --- | --- |
| CC(=O)N1CCN(c2ccc(OCC3COC(Cn4ccnc4)(c4ccc(Cl)cc4Cl)O3)cc2)CC1 (stereo not shown) [Ketoconazole] | 8.33 ± 0.93 ×10⁻⁶ cm/s | 9.61 ± 0.01 ×10⁻⁶ cm/s | 76% |
| COc1ccc2[nH]c([S+]([O-])Cc3ncc(C)c(OC)c3C)nc2c1 (stereo not shown) [Omeprazole] | 11.4 ± 0.47 ×10⁻⁶ cm/s | 12.6 ± 2.01 ×10⁻⁶ cm/s | 80% |
| CC(C)(C)NCC(O)c1cc(O)cc(O)c1 (stereo not shown) [Terbutaline] | 16.6 ± 0.7 ×10⁻⁶ cm/s | 15.6 ± 1.28 ×10⁻⁶ cm/s | 73% |
| COCCc1ccc(OCC(O)CNC(C)C)cc1 (stereo not shown) [Metoprolol] | 11.8 ± 0.25 ×10⁻⁶ cm/s | 12.1 ± 0.39 ×10⁻⁶ cm/s |  |
| Nc1nnc(-c2cccc(Cl)c2Cl)c(N)n1 [Lamotrigine] |  |  | 98% |
| CC(C)NCC(O)COc1cccc2ccccc12 (stereo not shown) [Propranolol] | 9.37 ± 0.03 ×10⁻⁶ cm/s | 10.6 ± 1.66 ×10⁻⁶ cm/s |  |
| O=C(N[C@H](CO)[C@H](O)c1ccc([N+](=O)[O-])cc1)C(Cl)Cl [Chloramphenicol] | 7.12 ± 0.04 ×10⁻⁶ cm/s | 8.17 ± 0.06 ×10⁻⁶ cm/s |  |
| CCc1cc(C(N)=S)ccn1 [Ethionamide] | 20.4 ± 5.5 ×10⁻⁶ cm/s | 23.8 ± 0.94 ×10⁻⁶ cm/s | 80% |
| CC(C(=O)O)c1cccc(C(=O)c2ccccc2)c1 (stereo not shown) [Ketoprofen] | 15 ± 1.97 ×10⁻⁶ cm/s | 19.2 ± 1.93 ×10⁻⁶ cm/s |  |
| CCOC(=O)C1=C(C)NC(C)=C(C(=O)OC)C1c1cccc(Cl)c1Cl (stereo not shown) [Felodipine] |  | 4.34 ± 0.63 ×10⁻⁶ cm/s |  |
| CC(=O)CC(c1ccccc1)c1c(O)c2ccccc2oc1=O (stereo not shown) [Warfarin sodium] | 14.44 ± 0.11 ×10⁻⁶ cm/s | 15.31 ± 0.002 ×10⁻⁶ cm/s |  |
| CC(NC(C)(C)C)C(=O)c1cccc(Cl)c1 (stereo not shown) [Bupropion] | 12.9 ± 0.48 ×10⁻⁶ cm/s | 16.6 ± 0.99 ×10⁻⁶ cm/s |  |
| NC(=O)N1c2ccccc2C=Cc2ccccc21 [Carbamazepine] | 19.5 ± 0.87 ×10⁻⁶ cm/s | 20.9 ± 1.93 ×10⁻⁶ cm/s | 100% |
| Nc1ccc(S(=O)(=O)Nc2ncccn2)cc1 [Sulfadiazine] |  | 9.76 ± 1.05 ×10⁻⁶ cm/s | 65% |
| COC(=O)[C@H]1[C@H]2C[C@@H]3c4[nH]c5cc(OC)ccc5c4CCN3C[C@H]2C[C@@H](OC(=O)c2cc(OC)c(OC)c(OC)c2)[C@@H]1OC [Reserpine] | 3.6 ± 0.43 ×10⁻⁶ cm/s | 3.5 ± 0.69 ×10⁻⁶ cm/s | 50% |
